According to patent US20230348369A1 (Cytokinetics, Inc., priority 2020, published 2023):
pEC50: −log10 of the molar value. Where two headings read alike, the source gives them in different places.

Biological target: human NAMPT (Homo sapiens, UniProt P43490)
Assay: Human recombinant enzyme assay (NMN fluorescence biochemical assay, activation of NAMPT)
Outline: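 Activation of recombinant human NAMPT (6 nM) with 2.5 mM ATP, 20 μM PRPP and 150 μM nicotinamide in 50 mM HEPES pH 7.2, 1 mM DTT, 1 mM CHAPS, 50 mM NaCl, 100 mM MgCl2; 60 min, ambient temperature. NMN formed was derivatized with acetophenone/KOH/formic acid, fluorescence read at 355/460 nm after 40 min.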

[1] = Table A, human recombinant NAMPT, NMN formation, 60 min
[2] = Table A, human recombinant NAMPT, NMN formation, 60 min, read-out: EC50 Human

Chain of human NAMPT (P43490 whole entry): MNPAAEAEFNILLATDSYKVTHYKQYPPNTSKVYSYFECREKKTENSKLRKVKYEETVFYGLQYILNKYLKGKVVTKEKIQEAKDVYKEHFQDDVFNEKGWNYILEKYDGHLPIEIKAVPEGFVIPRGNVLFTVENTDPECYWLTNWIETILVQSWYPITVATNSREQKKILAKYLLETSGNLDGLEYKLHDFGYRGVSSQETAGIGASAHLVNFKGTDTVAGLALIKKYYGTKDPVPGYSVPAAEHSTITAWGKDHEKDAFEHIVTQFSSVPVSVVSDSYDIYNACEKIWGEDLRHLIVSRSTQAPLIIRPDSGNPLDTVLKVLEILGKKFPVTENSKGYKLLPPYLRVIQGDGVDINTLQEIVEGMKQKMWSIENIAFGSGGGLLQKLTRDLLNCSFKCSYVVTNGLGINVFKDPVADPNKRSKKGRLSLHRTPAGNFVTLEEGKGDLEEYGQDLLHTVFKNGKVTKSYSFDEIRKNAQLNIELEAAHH

AC1.4 Human [1] | pEC50 [2] | SMILES | pEC50
3.7 µM | 5.07 | CC(C)(O)CN1CCN(C(=O)CC2CC3(C2)CC(NC(=O)NCc2ccc(Cl)cc2)C3)CC1 (stereo not shown) [Compound 234, 1-(4-chlorobenzyl)-3-(6-(2-(4-(2-hydoxy-2-methylpropyl)piperazin-1-yl)-2-oxoethyl)spiro[3.3]heptan-2-yl)urea] | –
3.9 µM | 5.06 | O=C(NCCCCC1CCN(c2nn[nH]n2)CC1)NCc1ccc(Cl)cc1 [Compound 318, 1-(4-(1-(2H-tetrazol-5-yl)piperidin-4-yl)butyl)-3-(4-chlorobenzyl)urea] | –
2.0 µM | 5.10 | CN1CCC(C(=O)N2CCC(CCCCNC(=O)NCc3ccc(Cl)cc3)CC2)CC1=O (stereo not shown) [Compound 302, 1-(4-chlorobenzyl)-3-(4-(1-(1-methyl-2-oxopiperidine-4-carbonyl)piperidin-4-yl)butyl)urea] | –
0.2 µM | 4.54 | NC(=O)c1ccc(CNC(=O)NC2CC3(C2)CN(C(=O)c2cccc(N4CCCC4)c2)C3)cc1 [Compound 222, 4-((3-(2-(3-(pyrrolidin-1-yl)benzoyl)-2-azaspiro[3.3]heptan-6-yl)ureido)methyl)benzamide] | –
2.6 µM | 5.39 | COc1ccc(CNC(=O)NC2CC3(C2)CC(C(=O)N[C@@H]2CCc4ccccc4C2)C3)cc1 (stereo partly drawn) [Compound 96, (R)-6-(3-(4-methoxybenzyl)ureido)-N-(1,2,3,4-tetrahydronaphthalen-2-yl)spiro[3.3]heptane-2-carboxamide] | –
12.1 µM | 4.42 | NC(=O)c1ccc(CNC(=O)NC2CC3(CC(NCc4ccccn4)C3)C2)cc1 (stereo not shown) [Compound 34, 4-((3-(6-((pyridin-2-ylmethyl)amino)spiro[3.3]heptan-2-yl)ureido)methyl)benzamide] | –
0.9 µM | 5.43 | CN(C(=O)CCCCCNC(=O)NCc1ccc(Cl)cc1)c1ccccn1 [Compound 271, 6-(3-(4-chlorobenzyl)ureido)-N-methyl-N-(pyridin-2-yl)hexanamide] | –
6.8 µM | 5.17 | O=C(NCc1ccc(Cl)cc1)NC1CC2(C1)CC(NS(=O)(=O)c1cccnc1)C2 (stereo not shown) [Compound 213, N-(6-(3-(4-chlorobenzyl)ureido)spiro[3.3]heptan-2-yl)pyridine-3-sulfonamide] | –
8.0 µM | 4.35 | NC(=O)c1ccc(CNC(=O)N[C@H]2C[C@H](C(=O)NCc3ccccc3)C2)cc1 [Compound 21, 4-((3-((1r,3r)-3-(benzylcarbamoyl)cyclobutyl)ureido)methyl)benzamide] | –
0.7 µM | 5.59 | O=C(NCCCCCNC(=O)c1ccccc1F)NCc1ccc(Cl)cc1 [Compound 280, N-(5-(3-(4-chlorobenzyl)ureido)pentyl)-2-fluorobenzamide] | –
2.7 µM | 4.28 | COc1ccc(CNC(=O)NC2CC3(C2)CN(C(=O)c2ccc(OC)cc2)C3)cc1 [Compound 155, 1-(2-(4-methoxybenzoyl)-2-azaspiro[3.3]heptan-6-yl)-3-(4-methoxybenzyl)urea] | –
3.6 µM | 5.24 | O=C(NCc1ccc(Cl)cc1)NC1CC2(CC(CC(=O)N3CCCC3)C2)C1 (stereo not shown) [Compound 236, 1-(4-chlorobenzyl)-3-(6-(2-oxo-2-(pyrrolidin-1-yl)ethyl)spiro[3.3]heptan-2-yl)urea] | –
1.8 µM | 4.47 | COc1ccc(CNC(=O)NC2CC3(C2)CN(C(=O)c2cccc(N4CCCCC4)c2)C3)cc1 [Compound 190, 1-(4-methoxybenzyl)-3-(2-(3-(piperidin-1-yl)benzoyl)-2-azaspiro[3.3]heptan-6-yl)urea] | –
2.1 µM | 5.38 | Cc1cc(C(=O)NCC2CC3(C2)CC(NC(=O)NCc2ccc(Cl)cc2)C3)ccn1 (stereo not shown) [Compound 246, N-((6-(3-(4-chlorobenzyl)ureido)spiro[3.3]heptan-2-yl)methyl)-2-methylisonicotinamide] | –
12.4 µM | 4.55 | COc1ccc(C(=O)N2CC[C@]3(C2)C[C@@H](NC(=O)NCc2ccc(Cl)cc2)C3)cc1 [Compound 163, 1-(4-chlorobenzyl)-3-((2r,4s)-6-(4-methoxybenzoyl)-6-azaspiro[3.4]octan-2-yl)urea] | –
12.1 µM | 4.28 | Cc1ccc(C(=O)NC2CC3(CC(NC(=O)NCc4ccc(Cl)cc4)C3)C2)cn1 (stereo not shown) [Compound 192, N-(6-(3-(4-chlorobenzyl)ureido)spiro[3.3]heptan-2-yl)-6-methylnicotinamide] | –
– | 4.40 | CC(C)(C)OC(=O)NC1CCC(NC(=O)NCc2ccc(C(N)=O)cc2)CC1 (stereo not shown) [Compound 12, tert-butyl (4-(3-(4-carbamoylbenzyl)ureido)cyclohexyl)carbamate] | –

AC1.4 Human [1] | pEC50 [2] | SMILES | pEC50
9.6 µM | 4.93 | O=C(NCc1ccc(Cl)cc1)NC1CC2(C1)CC(NC(=O)c1ccccc1O)C2 (stereo not shown) [Compound 208, N-(6-(3-(4-chlorobenzyl)ureido)spiro[3.3]heptan-2-yl)-2-hydroxybenzamide] | –
3.2 µM | 5.26 | CC(C1CC2(CC(NC(=O)NCc3ccc(Cl)cc3)C2)C1)N1CCN(C)C(=O)C1 (stereo not shown) [Compound 253, 1-(4-chlorobenzyl)-3-(6-(1-(4-methyl-3-oxopiperazin-1-yl)ethyl)spiro[3.3]heptan-2-yl)urea] | –
0.9 µM | 5.59 | O=C(CCCCCNC(=O)NCc1ccc(Cl)cc1)Nc1ccccc1F [Compound 272, 6-(3-(4-chlorobenzyl)ureido)-N-(2-fluorophenyl)hexanamide] | –
– | – | CC(C)(O)CN1CCN(C(=O)[C@H]2C[C@]3(C[C@H](NC(=O)NCc4ccc(Cl)cc4)C3)C2)CC1 (single isomer, unassigned) [Compound 182] | 4.69
2.2 µM | 5.62 | Cc1ccc(CC2CC3(C2)CC(NC(=O)NCc2ccc(Cl)cc2)C3)cn1 (stereo not shown) [Compound 347, 1-(4-chlorobenzyl)-3-(6-((6-methylpyridin-3-yl)methyl)spiro[3.3]heptan-2-yl)urea] | –
0.3 µM | 5.07 | COc1ccc(CNC(=O)NC2CC3(C2)CC(C(=O)N(C)[C@H](C)c2ccccc2F)C3)cc1 (stereo partly drawn) [Compound 53, (R)-N-(1-(2-fluorophenyl)ethyl)-6-(3-(4-methoxybenzyl)ureido)-N-methylspiro[3.3]heptane-2-carboxamide] | –
11.8 µM | 4.56 | O=C(NCc1ccc(Cl)cc1)N[C@H]1C[C@]2(CCN(C(=O)c3ccc(F)cc3)C2)C1 [Compound 167, 1-(4-chlorobenzyl)-3-((2r,4s)-6-(4-fluorobenzoyl)-6-azaspiro[3.4]octan-2-yl)urea] | –
0.4 µM | 5.92 | O=C(NCCCCC1CCN(C(=O)c2ccno2)CC1)NCc1ccc(Cl)cc1 [Compound 306, 1-(4-chlorobenzyl)-3-(4-(1-(isoxazole-5-carbonyl)piperidin-4-yl)butyl)urea] | –
3.7 µM | 4.87 | CC(C)(C)OC(=O)N1CC2(CC(NC(=O)NCc3ccc(Cl)cc3)C2)C1 [Compound 197, tert-butyl 6-(3-(4-chlorobenzyl)ureido)-2-azaspiro[3.3]heptane-2-carboxylate] | –
1.0 µM | 5.42 | Cc1cccc(CC(=O)N2CCC(CCCCNC(=O)NCc3ccc(Cl)cc3)CC2)n1 [Compound 299, 1-(4-chlorobenzyl)-3-(4-(1-(2-(6-methylpyridin-2-yl)acetyl)piperidin-4-yl)butyl)urea] | –
3.6 µM | 6.10 | O=C(NCc1ccc(Cl)cc1)NC1CC2(CC(Cn3nncc3-c3ccccc3)C2)C1 (stereo not shown) [Compound 242, 1-(4-chlorobenzyl)-3-(6-((5-phenyl-1H-1,2,3-triazol-1-yl)methyl)spiro[3.3]heptan-2-yl)urea] | –
1.5 µM | 5.02 | Cc1cccc(C(=O)NCCCCCNC(=O)NCc2ccc(Cl)cc2)c1 [Compound 276, N-(5-(3-(4-chlorobenzyl)ureido)pentyl)-3-methylbenzamide] | –
4.1 µM | 5.12 | O=C(NCc1ccc(Cl)cc1)NC1CC2(CC(CC(=O)N3CCC[C@H]3CO)C2)C1 (stereo partly drawn) [Compound 235, (S)-1-(4-chlorobenzyl)-3-(6-(2-(2-(hydroxymethyl)pyrrolidin-1-yl)-2-oxoethyl)spiro[3.3]heptan-2-yl)urea] | –
2.8 µM | 5.04 | O=C1CC(C(=O)NCC2CC3(C2)CC(NC(=O)NCc2ccc(Cl)cc2)C3)CCN1 (stereo not shown) [Compound 252, N-((6-(3-(4-chlorobenzyl)ureido)spiro[3.3]heptan-2-yl)methyl)-2-oxopiperidine-4-carboxamide] | –
2.7 µM | 5.24 | CC1CCC(=O)N1CC1CC2(C1)CC(NC(=O)NCc1ccc(Cl)cc1)C2 (stereo not shown) [Compound 241, 1-(4-chlorobenzyl)-3-(6-((2-methyl-5-oxopyrrolidin-1-yl)methyl)spiro[3.3]heptan-2-yl)urea] | –
1.8 µM | 5.11 | O=C(NCc1ccc(Cl)cc1)NC1CC2(CC(CNC(=O)C3CCOCC3)C2)C1 (stereo not shown) [Compound 250, N-((6-(3-(4-chlorobenzyl)ureido)spiro[3.3]heptan-2-yl)methyl)tetrahydro-2H-pyran-4-carboxamide] | –

SMILES | AC1.4 Human [1] | pEC50 [2] | pEC50
NC(=O)c1ccc(CNC(=O)NC2CC3(CC(NCc4ccccc4)C3)C2)cc1 (stereo not shown) [Compound 24] | 8.1 µM | 4.54 | –
COc1ccc(CNC(=O)NC2CC3(CC(CC(=O)N(C)Cc4ccccc4)C3)C2)cc1 (stereo not shown) [Compound 67, N-benzyl-2-(6-(3-(4-methoxybenzyl)ureido)spiro[3.3]heptan-2-yl)-N-methylacetamide] | 2.3 µM | – | 4.44
COc1ccc(CNC(=O)NC2CC3(C2)CC(C(=O)NC(C)(C)c2ccccc2)C3)cc1 (stereo not shown) [Compound 70, 6-(3-(4-methoxybenzyl)ureido)-N-(2-phenylpropan-2-yl)spiro[3.3]heptane-2-carboxamide] | 3.9 µM | – | 4.41
